≈ marks a conversion by molar mass, not a printed value. Where “and” joins values, the source holds several entries; their conditions need not be identical. Equal values may be shown once.
Tests used:
[1] = target: T1, COX-1 (Ovis aries, UniProt P05979); experiment: COX-1 fluorometric inhibitory screening assay kit; format: biochemical, Ovine
T1 construct: purchased Cayman Chemical Company 700100
T1 sequence (P05979 25-600): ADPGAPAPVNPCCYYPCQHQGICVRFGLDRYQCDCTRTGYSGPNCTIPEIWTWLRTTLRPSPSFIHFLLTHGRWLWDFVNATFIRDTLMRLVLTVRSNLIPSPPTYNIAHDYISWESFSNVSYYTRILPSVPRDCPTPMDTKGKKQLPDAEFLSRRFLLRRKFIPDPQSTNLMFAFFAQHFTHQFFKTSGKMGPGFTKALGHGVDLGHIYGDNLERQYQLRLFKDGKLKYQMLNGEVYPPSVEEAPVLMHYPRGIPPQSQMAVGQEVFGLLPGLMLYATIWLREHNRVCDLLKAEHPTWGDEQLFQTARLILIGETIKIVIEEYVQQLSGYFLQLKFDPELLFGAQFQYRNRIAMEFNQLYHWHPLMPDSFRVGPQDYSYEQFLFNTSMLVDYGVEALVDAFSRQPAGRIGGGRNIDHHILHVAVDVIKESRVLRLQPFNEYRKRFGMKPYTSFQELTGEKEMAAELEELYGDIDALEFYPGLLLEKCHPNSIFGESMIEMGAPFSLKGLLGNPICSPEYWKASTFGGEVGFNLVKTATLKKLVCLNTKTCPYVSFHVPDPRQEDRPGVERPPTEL
Procedure: (§1) The essential oils and geraniol were tested using a commercial COX-1 (Ovine), COX-2 (Human recombinant), and fluorometric inhibitory screening assay kit following the instructions recommended by the manufacturer (Cayman test kit 700100, Cayman Chemical Company, Ann Arbor, MI, USA). Briefly, 150 µL of assay buffer (0.1 M Tris-HCl pH 8.0), 10 µL of Heme, 10 µL of enzyme (COX-1 or COX-2), and 10 µL of the test sample were added to the wells. After 5 min at 25 °C, 10 µL of ADHP (10-acetyl-3 7-dihydroxy phenoxazine) and 10 µL of arachidonic acid were added to initiate the reaction. The plate was incubated at room temperature for 2 min followed by fluorescence measured at 530 nm (excitation) and 585 nm (emission). Stock solution of the essential oils was prepared with DMSO 1%. The triplicate experimental data are expressed as mean ± standard deviation (SD). For the percentage inhibition (%I) calculations, the formula below was used:t% I = [(Initial Activity − Sample Activity)/Initial Activity] × 100

[2] = target: T2, COX-2 (Homo sapiens, UniProt P35354); experiment: biochemical
T2 sequence (P35354 18-604): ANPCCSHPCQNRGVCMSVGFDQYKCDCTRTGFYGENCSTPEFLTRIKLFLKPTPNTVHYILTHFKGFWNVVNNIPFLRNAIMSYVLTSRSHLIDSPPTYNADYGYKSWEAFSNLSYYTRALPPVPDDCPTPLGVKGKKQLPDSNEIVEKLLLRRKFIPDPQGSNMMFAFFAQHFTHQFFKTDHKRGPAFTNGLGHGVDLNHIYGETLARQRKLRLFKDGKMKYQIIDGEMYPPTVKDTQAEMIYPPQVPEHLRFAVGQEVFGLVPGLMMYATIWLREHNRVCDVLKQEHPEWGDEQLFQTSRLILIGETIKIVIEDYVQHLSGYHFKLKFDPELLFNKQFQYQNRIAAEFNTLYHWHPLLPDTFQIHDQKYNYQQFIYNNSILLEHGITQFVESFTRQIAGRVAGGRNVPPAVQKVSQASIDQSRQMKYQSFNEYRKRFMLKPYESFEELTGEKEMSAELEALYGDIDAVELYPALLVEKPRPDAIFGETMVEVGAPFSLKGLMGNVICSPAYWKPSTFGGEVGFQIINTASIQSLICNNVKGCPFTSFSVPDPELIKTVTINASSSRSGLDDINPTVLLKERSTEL
Procedure: as §1

[3] = target: T3, ACE2 (Homo sapiens, UniProt Q9BYF1); experiment: ACE2 enzyme inhibition assay (BioVision kit); format: biochemical; conditions: read-out: ACE2 inhibition
T3 construct: purchased BioVision K310
Procedure: The ACE2 enzyme inhibition assay was performed using the commercially available kit (BioVision, UK, Catalog number: K310). Stock solutions of the test samples were prepared in DMSO (1%, v/v). Essential oils (20 μg/mL) and geraniol (5 μg/mL) were dispensed into a 96-well plate followed by addition of ACE2 enzyme solution (blank excluded). The reaction was started by adding 40 µL of substrate solution to each well. The reaction mixture was measured at Ex/Em = 320/420 nm wavelength using the SpectraMax i3, fluorescent microplate reader (Molecular Devices, CA, USA). The results are reported as % inhibition values, which were obtained for all samples from triplicate experiments.

[4] = target: T4, AChE (Electrophorus electricus, UniProt O42275); experiment: Anticholinesterase activity, modified Ellman method (AChE); format: biochemical
T4 construct: purchased Sigma Aldrich
Procedure: Cholinesterase inhibition was determined spectrophotometrically through the modified Ellman method. Ethanol was used as negative control. Sodium phosphate buffer, AChE enzyme stock solution, the essential oils, and geraniol were mixed and allowed to incubate for 30 min at room temperature DTNB and acetylthiocholine were added to initiate the enzyme reaction.

[5] = tested on: A549 cells; experiment: MTT cytotoxicity assay, A549; format: cell-based; conditions: Homo sapiens, A549, 24 h, read-out: IC50 A549 cytotoxicity
Procedure: (§2) Human breast cancer cell lines MCF7 (ATCC HTB-22), human prostate cancer cell lines PC3 (ATCC CRL-1435), human lung cancer cell lines A549 (ATCC CCL-185), and human embryonic kidney cell lines HEK293 (ATCC CRL-1573) were cultured in Dulbecco’s Modified Eagle’s Medium/High Glucose (DMEM, High Glucose) or Dulbecco’s Modified Eagle’s Medium/F12 (DMEM, F12) at 37 °C in a humidified 5% CO2 atmosphere. The media were supplemented with 10% fetal bovine serum (FBS), 1% (v/v) antibiotic-antimycotics solution (100 U/mL of penicillin, 100 μg/mL of streptomycin, and 0.25 μg/mL of amphotericin B), and 1% (v/v) non-essential amino acids.
(§3) Cells were cultured for 24 h in 96-well plates containing 10^5 cells per well before exposure. The essential oils and geraniol were dissolved in DMSO (<1%) and diluted with respective medium for use in MTT assay (0.1–2000 µg/mL concentration range). After incubation, the […] and washed with D-PBS followed by addition of MTT (30 µL). After a 4 h incubation period, 150 µL of DMSO was added and mixed using a shaker at 25 °C. This was followed by measurement of the absorbances a 540 nm using the microplate reader. All experiments were performed in triplicate.

[6] = tested on: PC3 cells; experiment: MTT cytotoxicity assay, PC3; format: cell-based; conditions: Homo sapiens, PC-3, 24 h, read-out: IC50 PC3 cytotoxicity
Procedure: as §2, §3

[7] = tested on: MCF7 cells; experiment: MTT cytotoxicity assay, MCF7; format: cell-based; conditions: Homo sapiens, MCF7, 24 h, read-out: IC50 MCF7 cytotoxicity
Procedure: as §2, §3

[8] = MTT cytotoxicity assay, HEK293; format: cell-based; conditions: human, HEK293 cells, healthy cell line, ND: Not detected
Procedure: as §2, §3

[9] = human recombinant COX-2, fluorometric kit

T3 sequence (Q9BYF1 18-805): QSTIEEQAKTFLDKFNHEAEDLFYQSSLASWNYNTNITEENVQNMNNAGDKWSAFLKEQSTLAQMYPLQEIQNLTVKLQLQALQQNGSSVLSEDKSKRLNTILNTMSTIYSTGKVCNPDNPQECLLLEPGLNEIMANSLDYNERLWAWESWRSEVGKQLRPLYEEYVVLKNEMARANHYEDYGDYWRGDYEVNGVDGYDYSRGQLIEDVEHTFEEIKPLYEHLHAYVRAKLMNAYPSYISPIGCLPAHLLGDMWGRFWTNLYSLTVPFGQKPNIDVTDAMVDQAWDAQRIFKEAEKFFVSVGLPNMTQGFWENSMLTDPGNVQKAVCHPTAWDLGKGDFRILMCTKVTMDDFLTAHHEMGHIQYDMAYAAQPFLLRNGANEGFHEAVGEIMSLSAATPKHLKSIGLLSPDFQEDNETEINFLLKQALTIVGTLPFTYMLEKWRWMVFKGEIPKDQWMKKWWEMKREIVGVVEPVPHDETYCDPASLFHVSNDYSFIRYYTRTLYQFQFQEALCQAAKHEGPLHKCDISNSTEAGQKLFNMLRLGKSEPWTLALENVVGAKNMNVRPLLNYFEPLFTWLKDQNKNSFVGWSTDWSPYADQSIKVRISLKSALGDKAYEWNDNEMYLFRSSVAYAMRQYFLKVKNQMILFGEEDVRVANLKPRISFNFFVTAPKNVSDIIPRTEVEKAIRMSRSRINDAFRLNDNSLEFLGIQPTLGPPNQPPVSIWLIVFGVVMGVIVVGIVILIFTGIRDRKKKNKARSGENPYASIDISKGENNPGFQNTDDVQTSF
T4 sequence (O42275 24-633): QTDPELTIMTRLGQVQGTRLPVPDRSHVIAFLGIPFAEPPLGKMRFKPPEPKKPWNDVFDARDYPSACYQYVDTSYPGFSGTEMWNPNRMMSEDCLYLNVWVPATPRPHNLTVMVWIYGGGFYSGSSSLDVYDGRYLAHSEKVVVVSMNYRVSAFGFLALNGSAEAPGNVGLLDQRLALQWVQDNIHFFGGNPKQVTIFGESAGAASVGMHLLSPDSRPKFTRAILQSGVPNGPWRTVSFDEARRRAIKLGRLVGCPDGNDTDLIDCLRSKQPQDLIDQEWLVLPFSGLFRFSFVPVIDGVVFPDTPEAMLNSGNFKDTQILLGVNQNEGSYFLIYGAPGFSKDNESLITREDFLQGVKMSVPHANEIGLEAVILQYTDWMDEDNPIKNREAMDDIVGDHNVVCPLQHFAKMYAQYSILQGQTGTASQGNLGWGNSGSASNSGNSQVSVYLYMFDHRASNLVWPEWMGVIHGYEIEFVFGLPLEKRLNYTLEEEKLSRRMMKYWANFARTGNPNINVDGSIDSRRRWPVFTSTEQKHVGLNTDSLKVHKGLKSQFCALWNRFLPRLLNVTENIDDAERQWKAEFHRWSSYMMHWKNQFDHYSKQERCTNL

SMILES | IC50 ([1]; IC50 COX-1, ovine COX-1, fluorometric kit) | SI (selectivity index) ([2]; COX-2 versus COX-1 IC50) | IC50 [2, 9] | inhibition at 5 µg/mL [3] [%] | IC50 [4] [µM] | IC50 [5] [µg/mL] | IC50 [6] [µg/mL] | IC50 [7] [µg/mL] | IC50 at 24 h [8] [µg/mL] | IC50 COX-1 ([1]; ovine COX-1, fluorometric kit) [µg/mL] | IC50 COX-2 [2, 9] [µg/mL]
CC(C)=CCC/C(C)=C/CO [Geraniol] | 71.3 µM and 72.4 µM | 0.72 | 52.5 µM and 52.6 µM | 86.3 | 109 | 58.9 ± 1.09 (≈ 382 µM) | 77 ± 2.06 (≈ 499 µM) | 42.8 ± 1.48 (≈ 278 µM) | 81.8 ± 1.98 (≈ 530 µM) | – | –
CC(Cc1ccc(O)c(O)c1)C(C)Cc1ccc(O)c(O)c1 (centres unmarked) [Nordihydroguaretic Acid, Nordihydroguaiaretic acid, reference compound] | – | – | – | – | – | – | – | – | – | 7.1 (≈ 23.5 µM) | 9.1

From paper PMC10537268 (Plants, 2023)
